Laboratory results reported in the NIST ThermoML archive (doi:10.1021/je100734t).
± gives the expanded uncertainty stated by the source.

Assay: xn = mol fraction of the nth substance listed
Conditions: 101 kPa, Liquid; for speed of sound: Pulse-echo method

CCCCCCCCCO [nonan-1-ol] + CCc1ccccc1
Conditions | mass density, 293.15 K [kg/m3] | mass density, 303.15 K [kg/m3] | mass density, 313.15 K [kg/m3] | speed of sound, 293.15 K [m/s] | speed of sound, 303.15 K [m/s] | speed of sound, 313.15 K [m/s]
x2 = 0 | 827.7 ± 0.43 | 820.82 ± 0.44 | 813.88 ± 0.45 | 1381 ± 2 | 1347 ± 2 | 1314 ± 2
x2 = 0.0611 | 829.32 ± 0.42 | 822.34 ± 0.43 | 815.3 ± 0.45 | 1378 ± 2 | 1343 ± 2 | 1309 ± 2
x2 = 0.1285 | 831.14 ± 0.42 | 824.06 ± 0.43 | 816.91 ± 0.44 | 1374 ± 2 | 1338 ± 2 | 1304 ± 2
x2 = 0.1791 | 832.56 ± 0.42 | 825.4 ± 0.43 | 818.16 ± 0.44 | 1371 ± 2 | 1335 ± 2 | 1300 ± 2
x2 = 0.2466 | 834.5 ± 0.41 | 827.23 ± 0.42 | 819.87 ± 0.43 | 1366 ± 2 | 1330 ± 2 | 1294 ± 2
x2 = 0.3151 | 836.57 ± 0.41 | 829.17 ± 0.42 | 821.69 ± 0.43 | 1362 ± 2 | 1324 ± 2 | 1288 ± 2
x2 = 0.3717 | 838.35 ± 0.4 | 830.85 ± 0.41 | 823.26 ± 0.43 | 1358 ± 2 | 1320 ± 2 | 1283 ± 2
x2 = 0.4254 | 840.12 ± 0.4 | 832.51 ± 0.41 | 824.82 ± 0.42 | 1354 ± 2 | 1316 ± 2 | 1279 ± 2
x2 = 0.5007 | 842.74 ± 0.39 | 834.99 ± 0.41 | 827.14 ± 0.42 | 1349 ± 2 | 1311 ± 2 | 1273 ± 2
x2 = 0.5756 | 845.55 ± 0.39 | 837.63 ± 0.4 | 829.63 ± 0.41 | 1345 ± 2 | 1306 ± 2 | 1267 ± 2
x2 = 0.6411 | 848.19 ± 0.38 | 840.11 ± 0.39 | 831.97 ± 0.41 | 1341 ± 2 | 1302 ± 2 | 1263 ± 2
x2 = 0.7122 | 851.28 ± 0.38 | 843.05 ± 0.39 | 834.74 ± 0.4 | 1339 ± 2 | 1298 ± 2 | 1259 ± 2
x2 = 0.7798 | 854.46 ± 0.37 | 846.08 ± 0.38 | 837.59 ± 0.4 | 1337 ± 2 | 1296 ± 2 | 1257 ± 2
x2 = 0.8557 | 858.37 ± 0.36 | 849.81 ± 0.38 | 841.14 ± 0.39 | 1336 ± 2 | 1295 ± 2 | 1255 ± 2
x2 = 0.9341 | 862.85 ± 0.36 | 854.1 ± 0.37 | 845.28 ± 0.38 | 1338 ± 2 | 1295 ± 2 | 1254 ± 2

CCCCCCCCCCO [decan-1-ol] + Cc1ccc(C)cc1
Conditions | mass density, 293.15 K [kg/m3] | mass density, 303.15 K [kg/m3] | mass density, 313.15 K [kg/m3] | speed of sound, 293.15 K [m/s] | speed of sound, 303.15 K [m/s] | speed of sound, 313.15 K [m/s]
x2 = 0 | 829.98 ± 0.42 | 823.1 ± 0.44 | 816.27 ± 0.45 | 1396 ± 2 | 1362 ± 2 | 1329 ± 2
x2 = 0.0806 | 831.76 ± 0.43 | 824.74 ± 0.44 | 817.76 ± 0.45 | 1391 ± 2 | 1356 ± 2 | 1322 ± 2
x2 = 0.1731 | 833.82 ± 0.43 | 826.66 ± 0.44 | 819.54 ± 0.45 | 1385 ± 2 | 1349 ± 2 | 1314 ± 2
x2 = 0.2506 | 835.6 ± 0.44 | 828.33 ± 0.45 | 821.08 ± 0.46 | 1378 ± 2 | 1342 ± 2 | 1307 ± 2
x2 = 0.3197 | 837.25 ± 0.44 | 829.88 ± 0.45 | 822.5 ± 0.46 | 1373 ± 2 | 1336 ± 2 | 1300 ± 2
x2 = 0.3693 | 838.49 ± 0.44 | 831.04 ± 0.45 | 823.57 ± 0.46 | 1368 ± 2 | 1331 ± 2 | 1295 ± 2
x2 = 0.4336 | 840.17 ± 0.45 | 832.6 ± 0.46 | 825.02 ± 0.47 | 1362 ± 2 | 1325 ± 2 | 1289 ± 2
x2 = 0.4929 | 841.79 ± 0.45 | 834.12 ± 0.46 | 826.43 ± 0.47 | 1357 ± 2 | 1320 ± 2 | 1283 ± 2
x2 = 0.5771 | 844.26 ± 0.46 | 836.42 ± 0.47 | 828.58 ± 0.48 | 1350 ± 2 | 1312 ± 2 | 1275 ± 2
x2 = 0.662 | 846.98 ± 0.46 | 838.96 ± 0.47 | 830.98 ± 0.48 | 1344 ± 2 | 1305 ± 2 | 1267 ± 2
x2 = 0.7265 | 849.2 ± 0.47 | 841.06 ± 0.48 | 832.94 ± 0.49 | 1340 ± 2 | 1300 ± 2 | 1262 ± 2
x2 = 0.7763 | 851.04 ± 0.47 | 842.8 ± 0.48 | 834.58 ± 0.49 | 1337 ± 2 | 1297 ± 2 | 1258 ± 2
x2 = 0.8293 | 853.13 ± 0.48 | 844.77 ± 0.49 | 836.44 ± 0.5 | 1335 ± 2 | 1294 ± 2 | 1255 ± 2
x2 = 0.8891 | 855.65 ± 0.48 | 847.2 ± 0.49 | 838.71 ± 0.5 | 1333 ± 2 | 1292 ± 2 | 1252 ± 2
x2 = 0.9369 | 857.84 ± 0.48 | 849.27 ± 0.49 | 840.68 ± 0.51 | 1332 ± 2 | 1290 ± 2 | 1250 ± 2
